Assay results: patent US20130065959A1, “SANITIZING MEAT WITH PERACID AND 2-HYDROXY ORGANIC ACID COMPOSITIONS” (Fresh Express Incorporated, priority 2009, published 2013)

Columns and labels:
[1] = Depletion of sanitizer wash water by diced Romaine, commercial scale test (Example 5); format: physicochemical; conditions: 38 to 40 F; for PA (ppm) / Peroxide (ppm): 600 gallons, LA 0 ppm
Experimental: (§1) Example 5. These experiments evaluated the consumption or depletion of peroxyacetic acid when used to wash produce.
(§2) Treatments: chlorinated water, peroxyacetic acid wash water, and FE sanitizer wash water
(§3) Temperature: 38 to 40° F.
(§4) Produce: 1.5″×2″ diced Romaine lettuce
A. Determination of the amount of Romaine Lettuce that could deplete 600 gallons of peroxyacetic acid wash water. • 1. Perform full sanitization on the Pilot Line System. • 2. Fill the 2nd flume tank, 2nd reservoir, and 2nd filtering tank with tap water. • 3. Recycle the water through the system until the water in the system is being cooled down to 40° F. • 4. Calibrate the Prominent System and use the Prominent System to monitor the concentration of PAA in the wash water. • 5. Add the PAA to the 2nd filtering tank until the target processing limit is reached. • 6. Dice the Romaine Lettuce via the translicer. • 7. Collect the 2″×2″ diced Romaine in totes. • 8. Record the weight of each tote prior to transferring it to the 2nd flume. • 9. Collect three untreated bags of Romaine Lettuce from each bin (1 top, 1 middle, and 1 bottom). • 10. Collect three treated bags of Romaine Lettuce at the end of F2 (1 beginning, 1 middle, and 1 end of the bin). • 11. Place white totes at the bottom of the locations with water spill. Return the spilt water back into the flume tank as needed. • 12. Place white totes at the bottom outlets of the centrifuge to collect liquid that would be spin off from the leaves. Return the collected water back into the flume tank as needed. • 13. Repeat Steps ‘e’ to ‘k’ for the rest of the bins till the FE concentrations fall below the lowest processing limits. • 14. Enumerate the microbial population (APC and Yeast and mold) on the collected samples. B. Determination of the amount of Romaine Lettuce that could deplete 600 gallons of FE wash water • 1. Perform full sanitization on the Pilot Line System. • 2. Fill the 1st flume tank, 2nd flume tank, 1st reservoir, 2nd reservoir, 1^stfiltering tank, and 2nd filtering tank with tap water. • 3. Recycle the water through the system until the water in the system is being cooled down to 40° F. • 4. Switch on the by-passes for the 1st and 2nd flume tank systems so that water would not be going through the filtering systems but only recycling from the flume tank to its associate reservoir continuously. • 5. Add the chemical ingredients to both tank until the target processing limit is reached. • 6. Verify the concentration of FE by the probe of the Prominent Monitoring System at the 1st flume tank (F1), 1st Reservoir (R1), 2nd Flume tank (F2), and the 2nd Reservoir (R2). • 7. Collect water samples from F1 and F2. • 8. Assemble the Romaine Lettuce Bins next to the dumpster. • 9. Transfer whole Romaine Lettuce leaves from the bin to the conveyor. • 10. Ensure that the lid above the F1 is closed. Turn the “ON/OFF” switch of the translicer to “ON”. • 11. Turn the conveyor for transferring leaves into the translicer to “ON”. • 12. Ensure that the chopped Romaine are delivered evenly into the flume tank without aggregation and clumping. • 13. Collect three untreated bags of Romaine Lettuce from each bin (1 top, 1 middle, and 1 bottom). • 14. Collect three treated bags of Romaine Lettuce at the end of F2 (1 beginning, 1 middle, and 1 end of the bin). • 15. Verify the pH, temperature, and the concentration of FE at the 1st flume tank (F1), 1st Reservoir (R1), 2nd Flume tank (F2), and the 2nd Reservoir (R2) before and after processing a bin. • 16. Place white totes at the bottom of the locations with water spill. Return the spilt water back into the flume tank as needed. • 17. Place white totes at the bottom outlets of the centrifuge to collect liquid that would be spin off from the leaves. Return the collected water back into the flume tank as needed. • 18. Repeat Steps ‘e’ to ‘o’ for the rest of the bins till the FE concentrations fall below the lowest processing limits. • 19. […]

[2] = 40° C.; cited from earlier work
[3] = test system: indigenous microorganisms; test: Reduction of indigenous microorganisms on Romaine, Aerobic Plate Counts, commercial scale test (Example 5); format: cell-based; conditions: 73-84 ppm peroxyacetic acid, no lactic acid
Experimental: as §1, §2, §3, §4
A. Determination of the amount of Romaine Lettuce that could deplete 600 gallons of peroxyacetic acid wash water. • 1. Perform full sanitization on the Pilot Line System. • 2. Fill the 2nd flume tank, 2nd reservoir, and 2nd filtering tank with tap water. • 3. Recycle the water through the system until the water in the system is being cooled down to 40° F. • 4. Calibrate the Prominent System and use the Prominent System to monitor the concentration of PAA in the wash water. • 5. Add the PAA to the 2nd filtering tank until the target processing limit is reached. • 6. Dice the Romaine Lettuce via the translicer. • 7. Collect the 2″×2″ diced Romaine in totes. • 8. Record the weight of each tote prior to transferring it to the 2nd flume. • 9. Collect three untreated bags of Romaine Lettuce from each bin (1 top, 1 middle, and 1 bottom). • 10. Collect three treated bags of Romaine Lettuce at the end of F2 (1 beginning, 1 middle, and 1 end of the bin). • 11. Place white totes at the bottom of the locations with water spill. Return the spilt water back into the flume tank as needed. • 12. […]

[4] = 600 gallons wash water, whole run
[5] = cumulative diced Romaine added 0.0 lb
[6] = cumulative diced Romaine added 55.2 lb
[7] = cumulative diced Romaine added 114.9 lb
[8] = cumulative diced Romaine added 157.2 lb
[9] = cumulative diced Romaine added 207.7 lb
[10] = cumulative diced Romaine added 272.9 lb
[11] = cumulative diced Romaine added 325.8 lb
[12] = cumulative diced Romaine added 371.3 lb
[13] = cumulative diced Romaine added 424.7 lb
[14] = cumulative diced Romaine added 502.6 lb
[15] = cumulative diced Romaine added 565.0 lb
[16] = cumulative diced Romaine added 629.0 lb
[17] = cumulative diced Romaine added 697.1 lb
[18] = cumulative diced Romaine added 762.7 lb
[19] = cumulative diced Romaine added 826.6 lb
[20] = cumulative diced Romaine added 896.2 lb
[21] = cumulative diced Romaine added 949.9 lb

## CC(=O)OO [Peroxyacetic acid, peroxyacetic acid]
[1]; [4]
  Amount of PA consumed: 11.7 ppm
  Pounds of PA consumed: 0.01208 lb
[1]; 600 gallons wash water, no lactic acid
  Depletion of PA: 0.000013 lb of PA per lb of Romaine
[1]; [5]
  PA (ppm): 84.8 ppm
  Peroxide (ppm): 7.5 ppm
[1]; [6]
  PA (ppm): 83.3 ppm
  Peroxide (ppm): 7.4 ppm
[1]; [7]
  PA (ppm): 82.7 ppm
  Peroxide (ppm): 7.4 ppm
[1]; [8]
  PA (ppm): 82.4 ppm
  Peroxide (ppm): 7.4 ppm
[1]; [9]
  PA (ppm): 82.0 ppm
  Peroxide (ppm): 7.4 ppm
[1]; [10]
  PA (ppm): 81.4 ppm
  Peroxide (ppm): 7.3 ppm
[1]; [11]
  PA (ppm): 81.0 ppm
  Peroxide (ppm): 7.3 ppm
[1]; [12]
  PA (ppm): 80.5 ppm
  Peroxide (ppm): 7.1 ppm
[1]; [13]
  PA (ppm): 79.6 ppm
  Peroxide (ppm): 6.9 ppm
[1]; [14]
  PA (ppm): 78.7 ppm
  Peroxide (ppm): 6.9 ppm
[1]; [15]
  PA (ppm): 78.4 ppm
  Peroxide (ppm): 6.9 ppm
[1]; [16]
  PA (ppm): 77.7 ppm
  Peroxide (ppm): 6.4 ppm
[1]; [17]
  PA (ppm): 76.1 ppm
  Peroxide (ppm): 6.4 ppm
[1]; [18]
  PA (ppm): 75.4 ppm
  Peroxide (ppm): 6.1 ppm
[1]; [19]
  PA (ppm): 74.7 ppm
  Peroxide (ppm): 6.0 ppm
[1]; [20]
  PA (ppm): 73.7 ppm
  Peroxide (ppm): 6.0 ppm
[1]; [21]
  PA (ppm): 73.1 ppm
  Peroxide (ppm): 6.0 ppm
[2]
  apparent equilibrium constant, Kap: about 2.21
[3]
  Log Reduction, Aerobic Plate Counts: 0.7 Log cfu/g
[3]; untreated 3.4
  Aerobic Plate Counts after wash: 2.7 Log cfu/g
